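Method: 48-hour compound exposure of cells in 96-well plates, five concentrations, linear interpolation of endpoints. TGI: concentration producing complete growth inhibition.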
How the values were obtained:
Test in all cases: NCI anticancer screen, dose series, 48 h
HT29 colon = system: HT29 colon
A549 NSCLC = system: A549 NSCLC
SNB-78 CNS = system: SNB-78 CNS
SF-268 CNS = system: SF-268 CNS
UACC-257 melanoma = system: UACC-257 melanoma
SR leukemia = system: SR leukemia
ACHN renal = system: ACHN renal
LOX IMVI melanoma = system: LOX IMVI melanoma
SW-620 colon = system: SW-620 colon
NCI-H460 lung = system: NCI-H460 lung
SN12C renal = system: SN12C renal
COLO 205 colon = system: COLO 205 colon
KM12 colon = system: KM12 colon
MALME-3M melanoma = system: MALME-3M melanoma
SK-OV-3 ovarian = system: SK-OV-3 ovarian
KM20L2 colon = system: KM20L2 colon
M19-MEL melanoma = system: M19-MEL melanoma
IGROV1 ovarian = system: IGROV1 ovarian
RPMI-8226 leukemia = system: RPMI-8226 leukemia
EKVX NSCLC = system: EKVX NSCLC
DMS 114 small cell lung = system: DMS 114 small cell lung
HCT-116 colon = system: HCT-116 colon
SK-MEL-5 melanoma = system: SK-MEL-5 melanoma
OVCAR-3 ovarian = system: OVCAR-3 ovarian
M14 melanoma = system: M14 melanoma
UO-31 renal = system: UO-31 renal
TK-10 renal = system: TK-10 renal
786-0 renal = system: 786-0 renal
XF 498 CNS = system: XF 498 CNS
HOP-92 NSCLC = system: HOP-92 NSCLC
NCI-H226 lung = system: NCI-H226 lung
OVCAR-5 ovarian = system: OVCAR-5 ovarian
SK-MEL-28 melanoma = system: SK-MEL-28 melanoma
SF-539 CNS = system: SF-539 CNS
SNB-19 CNS = system: SNB-19 CNS
SNB-75 CNS = system: SNB-75 CNS
DLD-1 colon = system: DLD-1 colon
DMS 273 small cell lung = system: DMS 273 small cell lung
HCC-2998 colon = system: HCC-2998 colon
CAKI-1 renal = system: CAKI-1 renal
U251 CNS = system: U251 CNS
LXFL 529 NSCLC = system: LXFL 529 NSCLC
MOLT-4 leukemia = system: MOLT-4 leukemia
UACC-62 melanoma = system: UACC-62 melanoma
NCI-H522 lung = system: NCI-H522 lung
SF-295 CNS = system: SF-295 CNS
NCI-H23 lung = system: NCI-H23 lung
HOP-18 NSCLC = system: HOP-18 NSCLC
OVCAR-4 ovarian = system: OVCAR-4 ovarian
A498 renal = system: A498 renal
HCT-15 colon = system: HCT-15 colon
OVCAR-8 ovarian = system: OVCAR-8 ovarian
SK-MEL-2 melanoma = system: SK-MEL-2 melanoma
HOP-62 NSCLC = system: HOP-62 NSCLC
RXF 393 renal = system: RXF 393 renal
HL-60(TB) leukemia = system: HL-60(TB) leukemia
CCRF-CEM leukemia = system: CCRF-CEM leukemia
K-562 leukemia = system: K-562 leukemia

Measured: TGI

CC1=NN(C(=O)CC(=O)Nc2cccc(Cl)c2)C(=O)C1N=Nc1ccc(S(N)(=O)=O)cc1 (stereo not given)
> 100 µM: HT29 colon | A549 NSCLC | SNB-78 CNS | SF-268 CNS | UACC-257 melanoma | SR leukemia | ACHN renal | LOX IMVI melanoma | SW-620 colon | NCI-H460 lung | SN12C renal | COLO 205 colon | KM12 colon | MALME-3M melanoma | SK-OV-3 ovarian | KM20L2 colon | M19-MEL melanoma | IGROV1 ovarian | RPMI-8226 leukemia | EKVX NSCLC | DMS 114 small cell lung | HCT-116 colon | SK-MEL-5 melanoma | OVCAR-3 ovarian | M14 melanoma | UO-31 renal | TK-10 renal | 786-0 renal | XF 498 CNS | HOP-92 NSCLC | NCI-H226 lung | OVCAR-5 ovarian | SK-MEL-28 melanoma | SF-539 CNS | SNB-19 CNS | SNB-75 CNS | DLD-1 colon | DMS 273 small cell lung | HCC-2998 colon | CAKI-1 renal | U251 CNS | LXFL 529 NSCLC | MOLT-4 leukemia | UACC-62 melanoma | NCI-H522 lung | SF-295 CNS | NCI-H23 lung | HOP-18 NSCLC | OVCAR-4 ovarian | A498 renal | HCT-15 colon | OVCAR-8 ovarian | SK-MEL-2 melanoma | HOP-62 NSCLC | RXF 393 renal

C/C(=N\N(C)C)C(CN(C)C)C(c1ccccc1)c1c(O)c2ccccc2oc1=O (stereo not given)
> 100 µM: HT29 colon | A549 NSCLC | SNB-78 CNS | SF-268 CNS | HL-60(TB) leukemia | UACC-257 melanoma | ACHN renal | LOX IMVI melanoma | SW-620 colon | NCI-H460 lung | SN12C renal | COLO 205 colon | KM12 colon | MALME-3M melanoma | SK-OV-3 ovarian | KM20L2 colon | IGROV1 ovarian | RPMI-8226 leukemia | EKVX NSCLC | DMS 114 small cell lung | HCT-116 colon | SK-MEL-5 melanoma | OVCAR-3 ovarian | M14 melanoma | CCRF-CEM leukemia | TK-10 renal | 786-0 renal | XF 498 CNS | HOP-92 NSCLC | NCI-H226 lung | OVCAR-5 ovarian | SK-MEL-28 melanoma | SNB-19 CNS | SNB-75 CNS | DLD-1 colon | DMS 273 small cell lung | HCC-2998 colon | U251 CNS | LXFL 529 NSCLC | MOLT-4 leukemia | UACC-62 melanoma | NCI-H522 lung | SF-295 CNS | NCI-H23 lung | OVCAR-4 ovarian | K-562 leukemia | HCT-15 colon | OVCAR-8 ovarian | SK-MEL-2 melanoma | RXF 393 renal

Reference: PubChem BioAssay (NCI)
